Values joined by “and” are separate entries in the source; they are usually repeats but may differ in a detail not shown here. Equal values may be shown once.
Test system: 188146-221-R-J1-PDC complex spheroid viability
Assay: Anticancer human tumor 188146-221-R-J1-PDC patient-derived colon adenocarcinoma cell line growth inhibition [POLQ]
Settings: for viability, T/C: stronger effect = lower value
Protocol: Multicellular complex tumor spheroid response to Polymerase (POL) inhibitors (novobiocin, ART-558, RP6685) in combination with a variety of drugs and investigational agents in selected tumor cell lines
The POL inhibitors (novobiocin, ART-558, and RP6685) were evaluated both individually and in combination with standard of care and investigational anticancer small molecules within a complex spheroid model of solid tumors. . Complex spheroids include a stromal component modeled by human endothelial cells (HUVEC) and fibroblasts modeled by human mesenchymal stem cells (MSCs). The concentration ranges selected for each drug and investigational agent were based upon clinically achievable concentrations if the clinical Cmax of the agent was known.
Compounds. The drugs and investigational agents: novobiocin (NSC847541), ART-558 (NSC835418), RP-6685 (NSC848927), peposertib (NSC802822), ceralasertib (NSC780249), elimusertib (NSC800525), camonsertib (NSC841442), AZD-1390 (NSC803789), olaparib (NSC753686), talazoparib (NSC767125), rucaparib (NSC756644), sotorasib (NSC818433), MRTX-1133 (NSC836407), SN-38 (NSC673596), topotecan (NSC609699), epotoside (NSC141540), doxorubicin (NSC123127), gemcitabine (NSC613327), 5-fluorouracil (NSC19893), paclitaxel (NSC125973), vemurafenib (NSC761431), MSA-2 (NSC828583), SN-011 (NSC837082), adavosertib (NSC754352), prexasertib (NSC758257), carboplatin (NSC241240) and oxaliplatin (NSC266046), were obtained from the National Cancer Institute (NCI) Developmental Therapeutics Program Chemical Repository (21). The FDA-approved anticancer drug set is available from the Developmental Therapeutics Program at https://dtp.cancer.gov/organization/dscb/obtaining/. […] The stock solutions were prepared in dimethyl sulfoxide (DMSO, Sigma-Aldrich, St. Louis, MO, cat. D2650), except for the platinum compounds which were prepared in saline (Quality Biological, Gaithersburg, MD, cat. 114-055-101), at 800-fold the tested concentration and stored at -70 degrees C prior to their use. All drugs and investigational agents were tested over a range starting from a high concentration at or near the clinical Cmax and decreasing in half-log increments. If the clinical Cmax for an agent had not been determined, the highest concentration tested was 10 microM, except for SN-38, which was tested at a high concentration of 1 microM.
Cell Culture. All cells were maintained in an incubator at 37 degrees C and 5% CO2 with 95% humidity. The PDC lines were cultured according to standard operating procedures established by the NCI PDMR (https://pdmr.cancer.gov). Table 3 of the manuscript, lists the cell lines along with the number of the three cell types plated to form the mct-spheroids and media for tumor cell growth. After thawing, all PDC lines, except 997537-175-T-J1-PDC and 415267-285-R-J2-PDC, were cultured in Matrigel-coated flasks prepared with a working solution of 1X Ham's F-12 nutrient mix, without supplementation (Thermo Fisher Scientific, cat. 11765054), 100 U/mL penicillin-streptomycin (Thermo Fisher Scientific, cat. 15140122), and 2.5% Matrigel (Corning Inc., Corning, NY, cat. 354248) for the first three passages. The two PDC lines 997537-175-T-J1-PDC and 415267-285-R-J2-PDC were cultured on uncoated flasks. The 857933-349-R-J2-PDC line was cultured in 6C/Colon 1B media containing advanced DMEM/F-12 (Thermo Fisher Scientific, cat. 12634028), 10 mM HEPES (Thermo Fisher Scientific, cat. 15630080), 1X GlutaMAX supplement (Thermo Fisher Scientific, cat. 35050061), 0.1 mg/mL primocin (InvivoGen, San Diego, CA, cat. ant-pm-2), 10% defined fetal bovine serum, heat inactivated (HyClone Laboratories Inc., Logan, UT, cat. SH30070.03HI), 50% L-WRN conditioned media (ATCC, cat. CRL-3276), 1.25 mM N-Acetyl-L-cysteine (Sigma-Aldrich, cat. A9165), 10 mM nicotinamide (Sigma-Aldrich, cat. N0636), 1X B-27 supplement (Thermo Fisher Scientific, cat. 17504044), 1X N-2 supplement (Thermo Fisher Scientific, cat. […]

[1] = curve of first compound, second compound 0.0316 µM
[2] = curve of first compound, second compound 0.1 µM
[3] = curve of first compound, second compound 0.316 µM
[4] = curve of first compound, second compound 1 µM
[5] = curve of first compound, second compound 3.16 µM
[6] = curve of first compound, second compound 10 µM
[7] = second compound 0.0316 µM, first compound 0.0316 µM
[8] = second compound 0.0316 µM, first compound 0.1 µM
[9] = second compound 0.0316 µM, first compound 0.316 µM
[10] = second compound 0.0316 µM, first compound 1 µM
[11] = second compound 0.0316 µM, first compound 3.16 µM
[12] = second compound 0.0316 µM, first compound 10 µM
[13] = second compound 0.1 µM, first compound 0.0316 µM
[14] = second compound 0.1 µM, first compound 0.1 µM
[15] = second compound 0.1 µM, first compound 0.316 µM
[16] = second compound 0.1 µM, first compound 1 µM
[17] = second compound 0.1 µM, first compound 3.16 µM
[18] = second compound 0.1 µM, first compound 10 µM
[19] = second compound 0.316 µM, first compound 0.0316 µM
[20] = second compound 0.316 µM, first compound 0.1 µM
[21] = second compound 0.316 µM, first compound 0.316 µM
[22] = second compound 0.316 µM, first compound 1 µM
[23] = second compound 0.316 µM, first compound 3.16 µM
[24] = second compound 0.316 µM, first compound 10 µM
[25] = second compound 1 µM, first compound 0.0316 µM
[26] = second compound 1 µM, first compound 0.1 µM
[27] = second compound 1 µM, first compound 0.316 µM
[28] = second compound 1 µM, first compound 1 µM
[29] = second compound 1 µM, first compound 3.16 µM
[30] = second compound 1 µM, first compound 10 µM
[31] = second compound 3.16 µM, first compound 0.0316 µM
[32] = second compound 3.16 µM, first compound 0.1 µM
[33] = second compound 3.16 µM, first compound 0.316 µM
[34] = second compound 3.16 µM, first compound 1 µM
[35] = second compound 3.16 µM, first compound 3.16 µM
[36] = second compound 3.16 µM, first compound 10 µM
[37] = second compound 10 µM, first compound 0.0316 µM
[38] = second compound 10 µM, first compound 0.1 µM
[39] = second compound 10 µM, first compound 0.316 µM
[40] = second compound 10 µM, first compound 1 µM
[41] = second compound 10 µM, first compound 3.16 µM
[42] = second compound 10 µM, first compound 10 µM
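Also: spheroids exposed to compounds for seven days.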
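For viability, T/C in this document: 100% = DMSO vehicle control viability.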

COc1cc(C2c3cc4c(cc3C(OC3OC5COC(C)OC5C(O)C3O)C3COC(=O)C23)OCO4)cc(OC)c1O (stereo unspecified) + Cc1cccc(N(C)C(=O)C2C(O)CCN2c2nc(C)cc(C(F)(F)F)c2C#N)c1
IC50 [1]: 887 nM
IC50 [2]: 789 nM
IC50 [3]: 723 nM
IC50 [4]: 748 nM
IC50 [5]: 664 nM
IC50 [6]: 483 nM
viability, T/C [7]: 115%
viability, T/C [8]: 99.9%
viability, T/C [9]: 77.3%
viability, T/C [10]: 47.6%
viability, T/C [11]: 27.5%
viability, T/C [12]: 25.9%
viability, T/C [13]: 111%
viability, T/C [14]: 99.2%
viability, T/C [15]: 77.8%
viability, T/C [16]: 43.5%
viability, T/C [17]: 25.1%
viability, T/C [18]: 28.3%
viability, T/C [19]: 108%
viability, T/C [20]: 102%
viability, T/C [21]: 71.7%
viability, T/C [22]: 43%
viability, T/C [23]: 26.4%
viability, T/C [24]: 28.7%
viability, T/C [25]: 108%
viability, T/C [26]: 104%
viability, T/C [27]: 70.5%
viability, T/C [28]: 45.6%
viability, T/C [29]: 27.2%
viability, T/C [30]: 30.8%
viability, T/C [31]: 101%
viability, T/C [32]: 103%
viability, T/C [33]: 70.1%
viability, T/C [34]: 40.6%
viability, T/C [35]: 29.4%
viability, T/C [36]: 31.1%
viability, T/C [37]: 93.1%
viability, T/C [38]: 79.6%
viability, T/C [39]: 61.2%
viability, T/C [40]: 32.4%
viability, T/C [41]: 29.1%
viability, T/C [42]: 32.8%

Nc1ccn(C2OC(CO)C(O)C2(F)F)c(=O)n1 (stereo unspecified)
viability, T/C (compound 0.0316 µM): 27.1% and 27.6% and 53.7%
viability, T/C (compound 0.1 µM): 17.8% and 15.8% and 24.2%
viability, T/C (compound 0.316 µM): 13.2% and 15.2% and 14.9%
viability, T/C (compound 1 µM): 16.1% and 16.9% and 13.9%
viability, T/C (compound 3.16 µM): 15.9% and 19.2% and 16.6%
viability, T/C (compound 10 µM): 10.9% (2×) and 15.4%
IC50 (curve of compound): < 31.6 nM and 36.4 nM

CCc1cc2c(N3CCc4c(cc(Cn5ccnc5)cc4-c4cn(C)nc4C(F)(F)F)C3=O)ccnc2c(OC)n1 + COC1C(OC(N)=O)C(O)C(Oc2ccc3c(O)c(NC(=O)c4ccc(O)c(CC=C(C)C)c4)c(=O)oc3c2C)OC1(C)C
IC50 [1]: 8380 nM
IC50 [2]: > 10000 nM
IC50 [3]: 9830 nM
IC50 [4]: 6450 nM
IC50 [5]: > 10000 nM
IC50 [6]: > 10000 nM
viability, T/C [7]: 107%
viability, T/C [8]: 93.5%
viability, T/C [9]: 99.2%
viability, T/C [10]: 96.2%
viability, T/C [11]: 67.6%
viability, T/C [12]: 46.8%
viability, T/C [13]: 117%
viability, T/C [14]: 108%
viability, T/C [15]: 107%
viability, T/C [16]: 99.7%
viability, T/C [17]: 66.3%
viability, T/C [18]: 62.6%
viability, T/C [19]: 103%
viability, T/C [20]: 108%
viability, T/C [21]: 98.1%
viability, T/C [22]: 93.7%
viability, T/C [23]: 68.7%
viability, T/C [24]: 49.9%
viability, T/C [25]: 103%
viability, T/C [26]: 97.2%
viability, T/C [27]: 104%
viability, T/C [28]: 104%
viability, T/C [29]: 58.5%
viability, T/C [30]: 44.7%
viability, T/C [31]: 105%
viability, T/C [32]: 111%
viability, T/C [33]: 102%
viability, T/C [34]: 83%
viability, T/C [35]: 82.8%
viability, T/C [36]: 55.3%
viability, T/C [37]: 108%
viability, T/C [38]: 95.6%
viability, T/C [39]: 108%
viability, T/C [40]: 85.5%
viability, T/C [41]: 67.8%
viability, T/C [42]: 59%

From PubChem BioAssay AID1963851 (Molecular Pharmacology Branch, DTP, NCI, 2024)
